Test results from PMC9272005, “Genome-Wide Expression Analysis of Glyoxalase I Genes Under Hyperosmotic Stress and Existence of a Stress-Responsive Mitochondrial Glyoxalase I Activity in Durum Wheat (Triticum durum Desf.)” (Frontiers in Plant Science, 2022).

Target: T1, DWM-GLYI (mitochondrial glyoxalase I)
T1 construct: native activity in Triton X-100-lysed purified mitochondria; isoform not identified
Assay: spectrophotometric GLYI activity assay ([…] nm) in lysed mitochondria, inhibition kinetics
Assay type: biochemical, Triticum turgidum subsp. durum

Compound	Ki [µM]
COc1cc(/C=C/C(=O)CC(=O)/C=C/c2ccc(O)c(OC)c2)ccc1O [curcumin]	20 ± 3.5
O=c1c(O)c(-c2ccc(O)c(O)c2)oc2cc(O)cc(O)c12 [quercetin]	55 ± 7.5
